Structures can show the parent of a compound that is named as a salt.

The subject of the first assay is synthesis of LTB4 in human whole blood. The assay is described as follows: human whole blood (HWB) assay, LTB4 production inhibition after calcimycin stimulation. The assay is classed as cell-based. The settings on record: heparinized human whole blood, calcimycin 20 μM, plasma LTB4 by HTRF. How it is done:
The compounds of the invention are additionally tested in a human whole blood (HWB) assay to determine their ability to inhibit the synthesis of LTB4 in a cellular system. Compounds are combined with heparinized human whole blood and incubated for 15 minutes at 37° C. Calcimycin (20 μM final, prepared in phosphate-buffered saline, pH 7.4) is then added and the mixture is incubated for another 30 minutes at 37° C. The samples are centrifuged for 5 min at low speed (1500×g) and the plasma layer is removed. Plasma LTB4 concentrations are then measured using an antibody-based homogenous time-resolved fluorescence method (CisBio, Bedford, Mass.). In general, the preferred potency range (IC50) of compounds in the HWB assay is between 10 nM to 10 μM, the more preferred potency range is 10 nM to 1 μM, and the most preferred potency range is 10 nM to 100 nM.
Turning to `c1ccc2c(c1)OCC(c1ccc(CN3CCCC3)cc1)O2` (racemic) [Example 1, 1-[4-(2,3-dihydro-1,4-benzodioxin-2-yl)benzyl]pyrrolidine], the IC50 came out at 179 nM.
Still for that read-out and setting: the result for `O[C@H]1CCN(Cc2ccc(C3COc4ccccc4O3)cc2)C1` (mixture of isomers) [Example 9, (3S)-1-[4-(2,3-dihydro-1,4-benzodioxin-2-yl)benzyl]pyrrolidin-3-ol] reads 285 nM; that for `O=C1CCCN1CC1CCCN(Cc2ccc(C3COc4ccccc4O3)cc2)C1` (racemic) [Example 10, 1-({1-[4-(2,3-dihydro-1,4-benzodioxin-2-yl)benzyl]piperidin-3-yl}methyl)pyrrolidin-2-one], 352 nM; that for `c1cnc2c(c1)OCC(c1ccc(CN3CCOCC3)cc1)O2` (racemic) [Example 18, 3-[4-(morpholin-4-ylmethyl)phenyl]-2,3-dihydro[1,4]dioxino[2,3-b]pyridine], 176 nM.
The same measure, in the same setting: in the case of `CNC(=O)C1CCN(Cc2ccc(C3COc4ccccc4O3)cc2)CC1` (racemic) [Example 25, 1-[4-(2,3-Dihydro-benzo[1,4]dioxin-2-yl)-benzyl]-piperidine-4-carboxylic acid methylamide] it was 294 nM.

For another assay, the target named is T1, human LTA4 hydrolase (Homo sapiens, UniProt P09960).
T1 sequence (P09960 1-611): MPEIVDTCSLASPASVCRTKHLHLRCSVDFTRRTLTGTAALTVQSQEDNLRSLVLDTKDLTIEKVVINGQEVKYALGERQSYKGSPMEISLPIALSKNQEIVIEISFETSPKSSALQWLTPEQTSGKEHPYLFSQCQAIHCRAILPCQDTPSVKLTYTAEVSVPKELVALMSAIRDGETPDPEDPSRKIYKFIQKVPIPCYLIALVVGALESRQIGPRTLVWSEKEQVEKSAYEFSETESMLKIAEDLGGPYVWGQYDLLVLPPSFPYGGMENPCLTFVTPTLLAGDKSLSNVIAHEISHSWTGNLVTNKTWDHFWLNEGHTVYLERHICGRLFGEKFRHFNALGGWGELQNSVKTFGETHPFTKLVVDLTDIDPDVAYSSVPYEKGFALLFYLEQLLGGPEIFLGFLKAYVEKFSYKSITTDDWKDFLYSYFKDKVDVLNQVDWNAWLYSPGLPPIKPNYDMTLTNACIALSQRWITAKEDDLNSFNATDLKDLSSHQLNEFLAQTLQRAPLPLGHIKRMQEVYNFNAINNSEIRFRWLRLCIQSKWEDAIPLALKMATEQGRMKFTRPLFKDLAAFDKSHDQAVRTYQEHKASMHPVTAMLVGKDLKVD
Description: LTA4H Enzyme assay (cleavage of Arg-AMC, fluorescence). The assay is classed as biochemical. The following applies: LTA4H Enzyme 1 nM, Arg-AMC substrate 50 μM, room temperature 1 h, fluorescence; read-out: IC50 values of LTA4H Enzyme assay. Summed up:
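Peptidase activity of human LTA4H (1 nM final) on Arg-AMC (50 μM final), with compound, 1 h at room temperature. Buffer: 50 mM Tris-HCl pH 7.5, 100 mM KCl, 0.5% BSA.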
Take `c1ccc2c(c1)OCC(c1ccc(CN3CCCC3)cc1)O2` (racemic) [Example 1, 1-[4-(2,3-dihydro-1,4-benzodioxin-2-yl)benzyl]pyrrolidine]: the IC50 worked out at 0.38 nM.
As for `O[C@H]1CCN(Cc2ccc(C3COc4ccccc4O3)cc2)C1` (mixture of isomers) [Example 9, (3S)-1-[4-(2,3-dihydro-1,4-benzodioxin-2-yl)benzyl]pyrrolidin-3-ol], the IC50 came to 1.49 nM.
Still for that read-out and setting: in the case of `O=C1CCCN1CC1CCCN(Cc2ccc(C3COc4ccccc4O3)cc2)C1` (racemic) [Example 10, 1-({1-[4-(2,3-dihydro-1,4-benzodioxin-2-yl)benzyl]piperidin-3-yl}methyl)pyrrolidin-2-one] it was 0.75 nM; in that of `c1cnc2c(c1)OCC(c1ccc(CN3CCOCC3)cc1)O2` (racemic) [Example 18, 3-[4-(morpholin-4-ylmethyl)phenyl]-2,3-dihydro[1,4]dioxino[2,3-b]pyridine], 1.14 nM; in that of `CNC(=O)C1CCN(Cc2ccc(C3COc4ccccc4O3)cc2)CC1` (racemic) [Example 25, 1-[4-(2,3-Dihydro-benzo[1,4]dioxin-2-yl)-benzyl]-piperidine-4-carboxylic acid methylamide], 0.76 nM.
Consider `NC(=O)C1CCN(Cc2ccc([C@H]3COc4cccnc4O3)cc2)CC1` [Example 206, 1-{4-[(3S)-2,3-dihydro[1,4]dioxino[2,3-b]pyridin-3-yl]benzyl}piperidine-4-carboxamide], for which the IC50 stood at 0.19 nM.
On the same count and under the same terms, the result for `NC(=O)C1CCN(Cc2ccc([C@@H]3COc4cccnc4O3)cc2)CC1` [Example 207, 1-{4-[(3R)-2,3-dihydro[1,4]dioxino[2,3-b]pyridin-3-yl]benzyl}piperidine-4-carboxamide] reads 0.86 nM; that for `O=C1CCCN1Cc1ccc(C2COc3cccnc3O2)cc1` (stereo not drawn) [Example 208, 11-[4-(2,3-dihydro-[1,4]dioxino[2,3-b]pyridin-3-yl)-benzyl]-pyrrolidin-2-one], 21.4 nM; that for `O=C1OCCN1Cc1ccc(C2COc3cccnc3O2)cc1` (stereo not drawn) [Example 209, 3-[4-(2,3-dihydro[1,4]dioxino[2,3-b]pyridin-3-yl)benzyl]-1,3-oxazolidin-2-one], 12.4 nM.
Same read-out and setting: the result for `NCc1ccc(C2COc3cccnc3O2)cc1` (stereo not drawn) [Example 210, 4-(2,3-Dihydro-[1,4]dioxino[2,3-b]pyridin-3-yl)-benzylamine] reads 19 nM; that for `CC1(C(=O)O)CCN(Cc2ccc([C@H]3COc4ccccc4O3)cc2)CC1` [Example 211, 1-[(S)-4-(2,3-Dihydro-benzo[1,4]dioxin-2-yl)-benzyl]-4-methyl-piperidine-4-carboxylic acid], 0.69 nM; that for `C[C@H]1CN(Cc2ccc([C@H]3COc4ccccc4O3)cc2)CC[C@H]1C(=O)O` [Example 212], 0.49 nM.
Still for that read-out and setting: the result for `O=C(O)C1(F)CCN(Cc2ccc([C@H]3COc4ccccc4O3)cc2)CC1` [Example 213, 1-{4-[(2S)-2,3-dihydro-1,4-benzodioxin-2-yl]benzyl}-4-fluoropiperidine-4-carboxylic acid] reads 0.81 nM; that for `O=C(O)[C@H]1CCN(Cc2ccc([C@H]3COc4ccccc4O3)cc2)C1` [Example 215, (3S)-1-{4-[(2S)-2,3-dihydro-1,4-benzodioxin-2-yl]benzyl}pyrrolidine-3-carboxylic acid], 0.7 nM; that for `c1ccc2c(c1)OC[C@H](c1ccc(CN3CCC(c4nnn[nH]4)CC3)cc1)O2` [Example 216, 1-[(S)-4-(2,3-Dihydro-benzo[1,4]dioxin-2-yl)-benzyl]-4-(1H-tetrazol-5-yl)-piperidine], 0.13 nM.
With `NC1CCN(Cc2ccc([C@H]3COc4ccccc4O3)cc2)CC1` [Example 217, 1-[(S)-4-(2,3-Dihydro-benzo[1,4]dioxin-2-yl)-benzyl]-piperidin-4-ylamine], the IC50 stood at 2.28 nM.
Take `O=C(CO)NC1CCN(Cc2ccc([C@H]3COc4ccccc4O3)cc2)CC1` [Example 218, N-{1-[(S)-4-(2,3-Dihydro-benzo[1,4]dioxin-2-yl)-benzyl]-piperidin-4-yl}-2-hydroxy-acetamide]: the IC50 was found to be 0.37 nM.
The same measure, in the same setting: in the case of `CC(C)(O)C(=O)NC1CCN(Cc2ccc([C@H]3COc4cccnc4O3)cc2)CC1` [Example 221, N-(1-{4-[(3S)-2,3-dihydro[1,4]dioxino[2,3-b]pyridin-4-yl]benzyl}piperidin-4-yl)-2-hydroxy-2-methylpropanamide] it was 0.16 nM; in that of `O=C(CO)NC1CCN(Cc2ccc([C@H]3COc4cccnc4O3)cc2)CC1` [Example 222, N-(1-{4-[(3S)-2,3-dihydro[1,4]dioxino[2,3-b]pyridin-3-yl]benzyl}piperidin-4-yl)-2-hydroxyacetamide], 0.14 nM; in that of `O=C(NC1CCN(Cc2ccc([C@H]3COc4cccnc4O3)cc2)CC1)C1(O)CC1` [Example 223, N-(1-{4-[(3S)-2,3-dihydro[1,4]dioxino[2,3-b]pyridin-3-yl]benzyl}piperidin-4-yl)-1-hydroxycyclopropanecarboxamide], 0.16 nM.
Still for that read-out and setting: in the case of `O=S1(=O)CCCN1C1CCN(Cc2ccc([C@H]3COc4ccccc4O3)cc2)CC1` [Example 224, 1-[(S)-4-(2,3-Dihydro-benzo[1,4]dioxin-2-yl)-benzyl]-4-(1,1-dioxo-1λ^6-isothiazolidin-2-yl)-piperidine] it was 0.13 nM.
Still for that read-out and setting: the result for `CC(c1ccc([C@H]2COc3ccccc3O2)cc1)N1CCCC1` (stereo partly drawn) [Example 225, 1-{1-[(S)-4-(2,3-dihydro-benzo[1,4]dioxin-2-yl)-phenyl]-ethyl}-pyrrolidine] reads 5.3 nM; that for `CC(c1ccc([C@H]2COc3ccccc3O2)cc1)N1CCOCC1` (stereo partly drawn) [Example 226, 4-(1-{4-[(2S)-2,3-dihydro-1,4-benzodioxin-2-yl]phenyl}ethyl)morpholine], 43 nM.
`CC1(C(=O)O)CCN(Cc2ccc([C@H]3COc4cccnc4O3)cc2)CC1` [Example 228, 1-[(S)-4-(2,3-Dihydro-[1,4]dioxino[2,3-b]pyridin-3-yl)-benzyl]-4-methyl-piperidine-4-carboxylic acid formate salt]: the IC50 was 0.61 nM.
On the same count and under the same terms, in the case of `CC(C)(C(=O)O)C1CCN(Cc2ccc([C@H]3COc4cccnc4O3)cc2)CC1` [Example 230, 2-{1-[(S)-4-(2,3-Dihydro-[1,4]dioxino[2,3-b]pyridin-3-yl)-benzyl]-piperidin-4-yl}-2-methyl-propionic acid formate salt] it was 1.24 nM; in that of `O=C(O)c1ccc(CC2CCN(Cc3ccc([C@H]4COc5ccccc5O4)cc3)CC2)cc1` [Example 231, 4-{1-[(S)-4-(2,3-Dihydro-benzo[1,4]dioxin-2-yl)-benzyl]-piperidin-4-ylmethyl}-benzoic acid], 0.29 nM; in that of `O=C(O)c1ccc2c(c1)CN(Cc1ccc([C@H]3COc4ccccc4O3)cc1)CC2` [Example 232, 2-{4-[(2S)-2,3-dihydro-1,4-benzodioxin-2-yl]benzyl}-1,2,3,4-tetrahydroisoquinoline-7-carboxylic acid], 2.75 nM.
The same measure, in the same setting: the result for `O=C(O)c1ccc(C2CCN(Cc3ccc([C@H]4COc5ccccc5O4)cc3)CC2)cc1` [Example 233, 4-(1-{4-[(2S)-2,3-dihydro-1,4-benzodioxin-2-yl]benzyl}piperidin-4-yl)benzoic acid] reads 0.22 nM; that for `O=C(O)c1ccc(C2CCN(Cc3ccc([C@H]4COc5cccnc5O4)cc3)CC2)cc1` [Example 235, 4-(1-{4-[(3S)-2,3-dihydro[1,4]dioxino[2,3-b]pyridin-3-yl]benzyl}piperidin-4-yl)benzoic acid], 0.08 nM; that for `CCN(Cc1ccc([C@H]2COc3ccccc3O2)cc1)Cc1cccc(C(=O)O)c1` [Example 238, 3-{[{4-[(2S)-2,3-dihydro-1,4-benzodioxin-2-yl]benzyl}(ethyl)amino]methyl}benzoic acid], 0.55 nM.
Same read-out and setting: the result for `O=C(O)c1cccc(CN2CCN(Cc3ccc([C@H]4COc5ccccc5O4)cc3)CC2)c1` [Example 239, 3-{4-[(S)-4-(2,3-Dihydro-benzo[1,4]dioxin-2-yl)-benzyl]-piperazin-1-ylmethyl}-benzoic acid] reads 0.15 nM.

Values taken from US8946203B2, “Benzodioxane inhibitors of leukotriene production” (Boehringer Ingelheim International GmbH, priority 2012, dated 2015).
